Strand notation (5' to 3'): a small letter for the sugar, then the base; units joined by * are phosphorothioate-linked, units joined directly phosphodiester-linked; [ ] holds rarer units or linkages, { } end groups; capitals alone tell only the bases. k = constrained ethyl (cEt); [5mC] = 5-methylcytosine; d = 2'-deoxy (DNA)
Assays:
[1] = test system: Yap1 mRNA; experiment: Dose-dependent inhibition of human Yap1 in A-431 cells (Example 8, 10,000 cells per well, RTS4814); type: cell-based; conditions: A-431 cells; for IC50: Yap1 mRNA
In short: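 A-431 cells (10,000/well) dosed with modified oligonucleotides by free uptake; Yap1 mRNA measured ~48 h later with primer-probe set RTS4814, normalized to total RNA (RIBOGREEN). Values are % of untreated control; IC50 from linear regression on log/linear plot.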

[2] = test system: Yap1 mRNA; experiment: Antisense inhibition of human Yap1 in A-431 cells by cEt gapmers, single dose (Example 4, RTS4814); type: cell-based
In short: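 A-431 cells took up 3-10-3 cEt gapmers (16-mer, full phosphorothioate, 5-methylcytosines) by free uptake at 2,000 nM for about 48 h. Yap1 mRNA was quantified by qRT-PCR, normalized to total RNA (RIBOGREEN), and reported as % of untreated control.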

[3] = Yap1 mRNA remaining as percent of untreated control, 3-10-3 cEt gapmers, A-431 cells, Table 36
[4] = Yap1 mRNA remaining as percent of untreated control, 3-10-3 cEt gapmers, A-431 cells, Table 37
[5] = Table 14, A-431 cells, 5,000 cells per well, free uptake, 2,000 nM, approximately 48 hours, RTS4814, normalized to RIBOGREEN, Yap1 mRNA relative to untreated control, * = targets amplicon region of primer probe set
[6] = Table 17, A-431 cells, 5,000 cells per well, free uptake, 2,000 nM, approximately 48 hours, RTS4814, normalized to RIBOGREEN, Yap1 mRNA relative to untreated control cells
[7] = Table 15, A-431 cells, 5,000 cells per well, free uptake, 2,000 nM, approximately 48 hours, RTS4814, normalized to RIBOGREEN, Yap1 mRNA relative to untreated control, * = targets amplicon region of primer probe set
[8] = Table 16, A-431 cells, 5,000 cells per well, free uptake, 2,000 nM, approximately 48 hours, RTS4814, normalized to RIBOGREEN, Yap1 mRNA relative to untreated control cells

Row | Substance | % UTC (Yap1 mRNA) ([1]; 31.3 nM) | % UTC (Yap1 mRNA) ([1]; 125.0 nM) | % UTC (Yap1 mRNA) ([1]; 500.0 nM) | % UTC (Yap1 mRNA) ([1]; 2000.00 nM) | IC50 [1] | also measured
1 | 1076534 (kA*k[5mC]*kT*dA*dT*dA*dA*dA*dG*d[5mC]*dA*dA*dT*kG*k[5mC]*kG; antisense) [compound 1076534] | 88 % UTC | 48 % UTC | 20 % UTC | 10 % UTC | 0.2 µM | YAP1 (% UTC) [2, 3]: 4 % UTC
2 | 1074678 (antisense kT*kA*kA*dT*d[5mC]*dT*dG*dT*dG*dG*d[5mC]*dT*dA*k[5mC]*kT*kG) [compound 1074678] | 73 % UTC | 37 % UTC | 16 % UTC | 10 % UTC | 0.1 µM | YAP1 (% UTC) [2, 3]: 7 % UTC
3 | 1076119 (kG*kT*kT*dA*dA*dA*dT*dA*dT*dG*dA*dA*dT*kT*kG*kG; antisense) [compound 1076119] | 82 % UTC | 35 % UTC | 12 % UTC | 6 % UTC | 0.1 µM | YAP1 (% UTC) [2, 4]: 7 % UTC
4 | 1076471 (k[5mC]*kA*kT*dT*dA*dG*dA*d[5mC]*dT*dA*dG*dG*d[5mC]*kT*kT*kT; antisense) [compound 1076471] | 64 % UTC | 29 % UTC | 9 % UTC | 5 % UTC | 0.05 µM | YAP1 (% UTC) [2, 4]: 5 % UTC
5 | 1074679 (antisense kT*k[5mC]*kT*dT*dA*dA*dT*d[5mC]*dT*dG*dT*dG*dG*k[5mC]*kT*kA) [compound 1074679] | 52 % UTC | 16 % UTC | 6 % UTC | 5 % UTC | < 0.02 µM | YAP1 (% UTC) [2, 4]: 5 % UTC
6 | 1076406 (antisense kA*kT*kT*dA*dT*dT*dT*dA*dA*dG*dA*d[5mC]*d[5mC]*kT*kG*kG) [compound 1076406] | 51 % UTC | 20 % UTC | 9 % UTC | 7 % UTC | < 0.02 µM | YAP1 (% UTC) [2, 3]: 4 % UTC
7 | 1074454 (kT*kG*kT*dG*dA*d[5mC]*dT*dA*dA*dT*dG*dA*dT*kA*kG*k[5mC]; antisense) [compound 1074454] | 39 % UTC | 9 % UTC | 3 % UTC | 3 % UTC | < 0.02 µM | YAP1 (% UTC) [2, 3]: 1 % UTC
8 | 1076183 (k[5mC]*kT*kT*d[5mC]*dT*dA*dT*dA*dA*dT*dT*dA*dG*k[5mC]*k[5mC]*kA; antisense) [compound 1076183] | 65 % UTC | 22 % UTC | 9 % UTC | 6 % UTC | 0.04 µM | YAP1 (% UTC) [2, 4]: 7 % UTC
9 | 1075264 (antisense kG*kA*kA*dT*dA*dA*dT*dA*dT*dG*d[5mC]*dA*dG*kA*kA*k[5mC]) [Compound 1075264] | – | – | – | – | – | YAP1 (% UTC) [2, 5]: 53 % UTC
10 | 1076323 (k[5mC]*kA*kA*dT*dT*dT*dA*d[5mC]*dA*dA*dG*dT*dG*kA*kG*k[5mC]; antisense) [Compound 1076323] | – | – | – | – | – | YAP1 (% UTC) [2, 6]: 5 % UTC
11 | 1075809 (kT*kA*kG*d[5mC]*dA*dA*dT*dA*dG*dA*dG*dT*dA*kA*k[5mC]*k[5mC]; antisense) [Compound 1075809] | – | – | – | – | – | YAP1 (% UTC) [2, 7]: 13 % UTC
12 | 1076131 (kT*kA*kT*dT*dA*dT*dG*dA*dG*dG*dA*d[5mC]*dT*kG*kA*kT; antisense) [Compound 1076131] | – | – | – | – | – | YAP1 (% UTC) [2, 6]: 23 % UTC
13 | 1075478 (k[5mC]*kA*kT*dT*dT*dT*dG*dA*dA*d[5mC]*d[5mC]*d[5mC]*dT*kT*kT*kA; antisense) [compound 1075478] | – | – | – | – | – | YAP1 (% UTC) [2, 3]: 20 % UTC
14 | 1076226 (k[5mC]*kA*kT*dA*dT*dA*dA*dA*d[5mC]*d[5mC]*dT*dT*dG*k[5mC]*kT*kA; antisense) [Compound 1076226] | – | – | – | – | – | YAP1 (% UTC) [2, 8]: 36 % UTC
15 | 1075522 (k[5mC]*kA*kA*dA*dT*d[5mC]*dG*dA*dG*dG*d[5mC]*dG*dA*kA*kT*k[5mC]; antisense) [Compound 1075522] | – | – | – | – | – | YAP1 (% UTC) [2, 8]: 82 % UTC
16 | 1075043 (antisense k[5mC]*k[5mC]*k[5mC]*d[5mC]*dA*dA*dA*dA*dG*d[5mC]*d[5mC]*d[5mC]*dT*kA*k[5mC]*kT) [Compound 1075043] | – | – | – | – | – | YAP1 (% UTC) [2, 6]: 73 % UTC
17 | 1076161 (kT*k[5mC]*kT*dT*dA*dT*dA*d[5mC]*dT*dA*dG*dT*dA*k[5mC]*kG*kG; antisense) [Compound 1076161] | – | – | – | – | – | YAP1 (% UTC) [2, 7]: 14 % UTC
18 | 1074176 (antisense k[5mC]*kT*k[5mC]*d[5mC]*d[5mC]*d[5mC]*d[5mC]*dG*dA*d[5mC]*dG*d[5mC]*dG*k[5mC]*kA*k[5mC]) [Compound 1074176] | – | – | – | – | – | YAP1 (% UTC) [2, 5]: 84 % UTC
19 | 1074499 (kT*kA*k[5mC]*dA*dA*dT*dA*dA*d[5mC]*d[5mC]*dA*dT*d[5mC]*k[5mC]*k[5mC]*kA; antisense) [Compound 1074499] | – | – | – | – | – | YAP1 (% UTC) [2, 6]: 10 % UTC

— US11214803B2, “Modulators of YAP1 expression” (Ionis Pharmaceuticals, Inc., priority 2019, dated 2022)
